Calls of active or inactive are those of the source.
Legend:
[1] = Luminescence Cell-Based Dose Response HTS to Identify Activators of Luciferase Translation or Activity in H4-C Neuroglioblastoma Cells. [Related pubchem assays: 1829 (Project Summary), 1814 (Primary HTS)]; assay type: functional
[2] = Luminescence Cell-Based Dose Retest to Confirm Activators of 5'UTR Stem-Loop Driven Alpha-Synuclein mRNA Translation in H4 Neuroglioblastoma Cells. [Related pubchem assays (depositor defined):AID1813, AID1829]; assay type: functional
[3] = Luminescence Cell-Based Dose Response HTS to Identify Activators of 5'UTR Stem-Loop Driven Prion Protein mRNA Translation in H4-C Neuroglioblastoma Cells. [Related pubchem assays: 1829 (Project Summary), 1814 (Primary HTS)]; assay type: functional
[4] = A cytotoxicity screen of small molecule inhibitors of the PhoP region in Salmonella typhi identified in the primary screen. [Related pubchem assays: 1850, 1864, 1985 ]; assay type: functional
[5] = Luminescence Cell-Based Dose Confirmation HTS to Identify Activators of 5'UTR Stem-Loop Driven Alpha-Synuclein mRNA Translation in H4 Neuroglioblastoma Cells. [Related pubchem assays: 1829 (Project Summary), 1814 (Primary HTS)]; assay type: functional
[6] = Luminescence Cell-Based Dose Response HTS to Identify Activators of Luciferase Translation or Activity in H4 […] Cells. [Related pubchem assays: 1829 (Project Summary), 1814 (Primary HTS)]; assay type: functional
H4 = assay: Luminescence Cell-Based Dose Response HTS to Identify Activators of 5'UTR Stem-Loop Driven Prion Protein mRNA Translation in H4 Neuroglioblastoma Cells. [Related pubchem assays: 1829 (Project Summary), 1814 (Primary HTS)]; assay type: functional; settings: Homo sapiens
[7] = NIH3T3 cell viability loss – ATP luminescence, mouse fibroblasts, counter-screen, dose response (AID 2010); assay type: functional, cell-based;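 further: cells exposed to compound for about 90 hours before reading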
[8] = Luminescence Cell Based Dose Confirmation HTS to Identify Activators of 5'UTR Stem-Loop Driven Alpha-Synuclein mRNA Translation in H4 Neuroglioblastoma Cells. [Related pubchem assays (depositor defined):AID1813, AID1829]; assay type: functional; settings: Homo sapiens
[9] = biological target: T1, Heat shock factor protein 1 (Mus musculus, UniProt P38532); assay: enhancement of HSF1-driven luciferase signal – cell-based, NIH3T3, luminescence, dose retest, confirmation (AID 435004); assay type: functional;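 further: stress induced by proteasome inhibitor MG132 added 30 min after compound; luciferase reporter driven by HSF1 response element in NIH3T3 cells; actives raise luminescence as potentiators of the MG132 stress response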
T1 sequence (P38532 whole entry): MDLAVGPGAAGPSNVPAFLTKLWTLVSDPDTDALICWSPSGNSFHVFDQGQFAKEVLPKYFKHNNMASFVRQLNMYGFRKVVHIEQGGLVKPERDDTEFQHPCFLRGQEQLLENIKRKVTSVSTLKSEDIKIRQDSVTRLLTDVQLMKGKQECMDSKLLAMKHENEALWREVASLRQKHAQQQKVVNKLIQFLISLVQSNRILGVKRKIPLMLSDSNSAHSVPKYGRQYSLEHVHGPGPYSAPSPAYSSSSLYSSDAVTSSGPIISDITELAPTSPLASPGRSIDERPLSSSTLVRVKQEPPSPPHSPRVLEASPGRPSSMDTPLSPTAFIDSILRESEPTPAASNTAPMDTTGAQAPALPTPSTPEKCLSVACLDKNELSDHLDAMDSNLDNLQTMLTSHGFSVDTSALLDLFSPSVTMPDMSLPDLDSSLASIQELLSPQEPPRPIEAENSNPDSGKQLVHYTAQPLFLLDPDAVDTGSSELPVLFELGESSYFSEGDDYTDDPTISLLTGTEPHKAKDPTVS

[10] = biological target: T2, Sentrin-specific protease 8 (Homo sapiens, UniProt Q96LD8); assay: inhibition of human SENP8 cleavage activity – biochemical, luminescence, SAR follow-up (AID 504501); assay type: functional
T2 sequence (Q96LD8 whole entry): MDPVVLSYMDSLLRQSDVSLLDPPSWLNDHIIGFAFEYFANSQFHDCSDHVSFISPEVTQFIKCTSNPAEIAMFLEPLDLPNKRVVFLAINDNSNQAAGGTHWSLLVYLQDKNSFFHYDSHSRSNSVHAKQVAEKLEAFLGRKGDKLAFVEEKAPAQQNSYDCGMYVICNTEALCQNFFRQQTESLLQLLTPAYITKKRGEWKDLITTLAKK

Caspase-3 = biological target: T3, Caspase-3 (Homo sapiens, UniProt P42574); assay: SAR Analysis of small molecule inhibitors of Sentrin-specific proteases (SENPs) using a Caspase-3 Selectivity assay. [Related pubchem assays (depositor defined):AID2540, AID2599, AID434973, AID489001]; assay type: functional
T3 sequence (P42574 whole entry): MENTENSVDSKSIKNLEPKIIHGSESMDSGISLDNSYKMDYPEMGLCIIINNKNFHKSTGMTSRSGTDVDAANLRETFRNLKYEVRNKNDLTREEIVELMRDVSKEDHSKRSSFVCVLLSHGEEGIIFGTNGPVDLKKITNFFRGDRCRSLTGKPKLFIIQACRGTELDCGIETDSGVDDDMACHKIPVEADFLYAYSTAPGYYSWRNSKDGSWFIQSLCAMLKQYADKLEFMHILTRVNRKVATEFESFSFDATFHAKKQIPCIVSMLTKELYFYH

[11] = biological target: T2, Sentrin-specific protease 8; assay type: functional
[12] = biological target: T2, Sentrin-specific protease 8; assay type: functional; remark: listed apart in the source
[13] = biological target: Tyrosyl-DNA phosphodiesterase 2 (Homo sapiens, UniProt O95551); assay: potency against TDP2 phosphodiesterase activity – biochemical, epi absorbance, IC50, dose response (AID 743297)
[14] = system: Streptococcus sp. 'group A'; assay: Streptococcus pyogenes SK(-)GAS viability under kanamycin – luminescence, BacTiterGlo, confirmation, counter-screen for streptokinase expression inhibitor project, dose response (AID 1900); assay type: functional, organism-based; settings: Streptococcus sp. 'group A'
SUMO-activating enzyme [15] = biological target: T4, SUMO-activating enzyme (Homo sapiens, UniProt Q9UBT2); assay: blockers of UBC9-mediated SUMO conjugation – biochemical, AlphaScreen, SUMOylation inhibitor project, confirmation (AID 2018); assay type: functional
SUMO-activating enzyme [16] = biological target: T4, SUMO-activating enzyme; assay: blockers of SAE1/SAE2–UBC9 SUMO transfer – biochemical, HTRF, uHTS, primary screen (AID 2006); assay type: protein-complex assay
[17] = biological target: Small ubiquitin-related modifier 2 (Homo sapiens, UniProt P61956); assay: disruption of SUMO2 interaction with SIM peptide – biochemical, fluorescence polarization, uHTS hits, selectivity assay for SUMO1 interaction inhibitor project, dose response (AID 624385); assay type: functional; settings: read-out: IC50_Mean
Sequence of Small ubiquitin-related modifier 2 (P61956 whole entry): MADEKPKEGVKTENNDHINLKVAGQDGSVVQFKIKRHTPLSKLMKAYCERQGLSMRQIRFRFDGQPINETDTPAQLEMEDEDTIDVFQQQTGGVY

T4 sequence (Q9UBE0 whole entry): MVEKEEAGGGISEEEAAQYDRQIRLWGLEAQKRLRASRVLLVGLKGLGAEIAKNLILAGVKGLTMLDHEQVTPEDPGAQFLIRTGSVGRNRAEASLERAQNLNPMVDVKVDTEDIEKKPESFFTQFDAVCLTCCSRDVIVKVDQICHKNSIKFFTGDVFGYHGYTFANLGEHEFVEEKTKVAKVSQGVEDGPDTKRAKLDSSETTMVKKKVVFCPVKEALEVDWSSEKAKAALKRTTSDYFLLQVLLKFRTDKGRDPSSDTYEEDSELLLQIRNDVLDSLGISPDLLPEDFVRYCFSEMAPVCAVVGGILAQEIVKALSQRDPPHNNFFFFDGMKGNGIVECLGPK
T4 sequence (Q9UBT2 whole entry): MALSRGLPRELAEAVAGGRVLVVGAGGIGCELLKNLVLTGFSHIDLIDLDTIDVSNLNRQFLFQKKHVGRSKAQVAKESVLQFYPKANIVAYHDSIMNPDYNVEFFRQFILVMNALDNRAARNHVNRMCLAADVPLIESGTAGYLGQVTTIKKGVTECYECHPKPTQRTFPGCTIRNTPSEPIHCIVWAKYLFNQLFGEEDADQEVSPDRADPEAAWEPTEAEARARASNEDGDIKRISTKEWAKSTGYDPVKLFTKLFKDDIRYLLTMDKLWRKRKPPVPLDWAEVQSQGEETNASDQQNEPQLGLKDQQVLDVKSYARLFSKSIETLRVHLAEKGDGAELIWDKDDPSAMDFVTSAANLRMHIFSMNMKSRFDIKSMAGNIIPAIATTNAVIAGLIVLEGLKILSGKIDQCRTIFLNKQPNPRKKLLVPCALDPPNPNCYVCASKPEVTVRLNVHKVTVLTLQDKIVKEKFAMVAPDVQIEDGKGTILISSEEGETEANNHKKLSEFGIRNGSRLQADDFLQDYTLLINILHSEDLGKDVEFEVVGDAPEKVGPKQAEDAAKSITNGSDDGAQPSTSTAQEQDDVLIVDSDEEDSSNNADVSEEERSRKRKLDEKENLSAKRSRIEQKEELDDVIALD
Sequence of Tyrosyl-DNA phosphodiesterase 2 (O95551 whole entry): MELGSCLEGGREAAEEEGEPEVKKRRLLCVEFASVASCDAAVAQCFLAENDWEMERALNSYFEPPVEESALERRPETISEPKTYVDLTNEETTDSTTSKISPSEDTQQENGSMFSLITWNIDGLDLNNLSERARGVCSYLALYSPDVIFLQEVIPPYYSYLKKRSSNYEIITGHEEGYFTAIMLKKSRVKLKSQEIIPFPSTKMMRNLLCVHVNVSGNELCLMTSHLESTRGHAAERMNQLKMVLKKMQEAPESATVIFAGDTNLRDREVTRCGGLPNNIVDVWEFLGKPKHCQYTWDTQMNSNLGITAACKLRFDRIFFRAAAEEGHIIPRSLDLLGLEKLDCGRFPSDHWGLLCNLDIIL

SMILES: c1ccc2c(Nc3nnc(-c4ccncc4)s3)cccc2c1
- EC50 [1]: 1.06 µM (active)
- EC50 [2]: 2.04 µM (active)
- EC50 [3]: 40 µM (active)
- EC50 [4]: > 50 µM (active)
- EC50 [5]: 0.196 µM (active)
- EC50 [6]: > 120 µM (not active)
- EC50 (H4): 13.8 µM (active)
- EC50 [7]: > 60 µM (not active)
- EC50 [8]: 2.02 µM (active)
- EC50 [9]: 42.1 µM (active)

SMILES: COc1cc(C(=O)c2nccc3cc(OC)c(OC)cc23)c([N+](=O)[O-])cc1OC
- IC50 [10]: > 99 µM (inactive)
- IC50 (Caspase-3): > 99 µM (inactive)
- IC50 [11]: 14.8 µM (active)
- IC50 [12]: 0.535 µM (active)
- IC50 [13]: > 128 µM (inactive)

SMILES: N#Cc1c(O)nc(SCC(=O)N2c3ccccc3Sc3ccccc32)nc1-c1ccccc1
- EC50 [14]: 5.6 µM (active)
- IC50 (SUMO-activating enzyme [15]): 5.15 µM (active)
- IC50 (SUMO-activating enzyme [16]): 14.3 µM (active)
- IC50 [17]: 10.9 µM (active)
